# Earlier results as cited in patent US11103501B2, “Dry powder formulation of azole derivative for inhalation” (priority 2011, dated 2021).
smiles,measurement,setting,value
CCC(C)n1ncn(-c2ccc(N3CCN(c4ccc(OCC5COC(Cn6cncn6)(c6ccc(Cl)cc6Cl)O5)cc4)CC3)cc2)c1=O (centres unmarked) [itraconazole],water solubility,,< 1 µg/mL
same,solubility,pII 7,< 1 µg/mL
